In ChEMBL document CHEMBL1145025, “Structure-activity relationship of (1-aryl-2-piperazinylethyl)piperazines: antagonists for the AGRP/melanocortin receptor binding” (J Med Chem, 2003) one finds IC50 and Selectivity data, which are given here for 14 molecules.

Molecules are shown by their SMILES. Active and inactive are the calls of the source.

In assay [1] the target is T1, Melanocortin receptor 4 (Homo sapiens, UniProt P32245). Nature of the assay: In vitro ability to inhibit the binding of [125I]AGRP to the human Melanocortin 4 receptor.
In assay [2] the target is T1, Melanocortin receptor 4. Nature of the assay: In vitro ability to inhibit the binding of alpha [125I]NDP-MSH to the human Melanocortin 4 receptor.
Assay [3] can be described thus: Fold selectivity for AGRP vs NDP-MSH binding was reported; Minimal Activity.
Assay [4] in a line: Fold selectivity for AGRP vs NDP-MSH binding to human MC4R was reported; Minimal activity.
Assay [5] addresses T1, Melanocortin receptor 4. As to the kind of experiment: Fold selectivity for AGRP vs NDP-MSH binding was reported.

T1 sequence (P32245 whole entry): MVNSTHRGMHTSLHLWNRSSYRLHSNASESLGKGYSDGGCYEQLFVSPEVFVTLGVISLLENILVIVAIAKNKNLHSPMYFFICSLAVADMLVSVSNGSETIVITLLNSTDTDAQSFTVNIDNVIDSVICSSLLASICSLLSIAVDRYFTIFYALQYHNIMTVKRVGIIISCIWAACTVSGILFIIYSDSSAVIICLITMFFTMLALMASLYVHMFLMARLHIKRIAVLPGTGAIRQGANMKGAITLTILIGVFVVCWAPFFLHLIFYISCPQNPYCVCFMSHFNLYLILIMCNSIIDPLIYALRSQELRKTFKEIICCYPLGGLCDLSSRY

The IC50 is the concentration needed to halve the response being measured. A low value points to inhibition by little substance. Consider `CN1CCN(C(CN2CCN(CCCc3ccccc3)CC2)c2ccc(F)cc2)CC1` (configuration not stated), for which the values for the half-maximal inhibitory concentration (IC50) on Melanocortin receptor 4 [1] and at Melanocortin receptor 4 [2] were more than 10000 nM and 3830 nM, respectively. In addition, in assay [3], the Selectivity entry was “Partially active”.
Take `CC(CN1CCN(CC(c2ccccc2)N2CCN(C)CC2)CC1)C(=O)c1ccccc1` (configuration not stated): the values for the IC50 at Melanocortin receptor 4 [1] and at Melanocortin receptor 4 [2] were more than 5000 nM and more than 10000 nM, respectively. Also, in assay [4], the Selectivity entry was “Partially active”.
As to `CCN1CCN(C(CN2CCN(CC(C)C(=O)c3ccccc3)CC2)c2ccc(F)cc2)CC1` (configuration not stated), the results for the IC50 on Melanocortin receptor 4 [1] and on Melanocortin receptor 4 [2] were 321 nM and 193 nM, respectively. Also, the Selectivity at Melanocortin receptor 4 [5] worked out at 1.6.
As to `CN1CCN(C(CN2CCN(CC3CCc4ccccc4C3=O)CC2)c2ccc(Cl)cc2)CC1` (configuration not stated), the IC50 on Melanocortin receptor 4 [1] was more than 10000 nM; at Melanocortin receptor 4 [2] it was 3230 nM. The Selectivity entry in assay [3] is “Partially active”.
On to `COc1ccc(C(=O)C(C)CN2CCN(CC(c3ccc(F)cc3)N3CCN(C)CC3)CC2)cc1` (configuration not stated), for which the concentration for half-maximal inhibition (IC50) on Melanocortin receptor 4 [1] was found to be 2150 nM; at Melanocortin receptor 4 [2] it was 597 nM. For the same molecule, the Selectivity at Melanocortin receptor 4 [5] turned out to be 0.3.
As for `CC(CN1CCN(CC(c2ccc(F)cc2)N2CCN(C)CC2)CC1)C(=O)c1ccc(C(F)(F)F)cc1` (configuration not stated), the half-inhibitory concentration (IC50) on Melanocortin receptor 4 [1] was 820 nM; on Melanocortin receptor 4 [2], 469 nM. The molecule further came in with a Selectivity at Melanocortin receptor 4 [5] of 0.5.
Turning to `CN1CCN(C(CN2CCN(CCC(=O)c3ccccc3)CC2)c2ccc(F)cc2)CC1` (configuration not stated), the concentration for half-maximal inhibition (IC50) at Melanocortin receptor 4 [1] and at Melanocortin receptor 4 [2] was more than 10000 nM each time. For the same molecule, in assay [3], the Selectivity entry was “Partially active”.
Regarding `CC(CN1CCN(CC(c2cccc(Cl)c2)N2CCN(C)CC2)CC1)C(=O)c1ccccc1` (configuration not stated), the figures for the IC50 at Melanocortin receptor 4 [1] and on Melanocortin receptor 4 [2] were 336 nM and 598 nM, respectively. Also, on Melanocortin receptor 4 [5], the Selectivity came out at 1.8.
In the case of `CC(CN1CCN(CC(c2ccc(F)cc2)N2CCN(C)CC2)CC1)C(=O)c1ccc(Cl)c(Cl)c1` (configuration not stated), the IC50 came to 364 nM on Melanocortin receptor 4 [1] and 188 nM at Melanocortin receptor 4 [2]. Moreover, the Selectivity on Melanocortin receptor 4 [5] was determined as 0.5.
On the same counts, the results for `CC(CN1CCN(CC(c2ccc(F)cc2)N2CCN(c3ccccc3)CC2)CC1)C(=O)c1ccccc1` (configuration not stated) are 2860 nM, 249 nM and 0.1.
On the same counts, the results for `CC(CN1CCN(CC(c2ccc(Cl)cc2)N2CCN(C)CC2)CC1)C(=O)c1ccc(Cl)cc1` (configuration not stated) are 118 nM, 150 nM and 0.8.
As to `CC(CN1CCN(CC(c2ccc(F)cc2)N2CCN(C3CCCCC3)CC2)CC1)C(=O)c1ccccc1` (configuration not stated), the IC50 on Melanocortin receptor 4 [1] is 152 nM; at Melanocortin receptor 4 [2], 164 nM. The same molecule had a Selectivity on Melanocortin receptor 4 [5] of 1.
For `CC(CN1CCN(CC(c2ccc(F)cc2)N2CCN(C)CC2)CC1)C(=O)c1ccc([N+](=O)[O-])cc1` (configuration not stated) the same measures were 588 nM, 1500 nM and 2.5.
As to `CC(CN1CCN(CC(c2ccc(F)cc2)N2CCN(C)CC2)CC1)C(=O)c1ccc(Cl)cc1` (configuration not stated), the IC50 at Melanocortin receptor 4 [1] was determined as 266 nM; at Melanocortin receptor 4 [2], 178 nM. Further, the Selectivity on Melanocortin receptor 4 [5] was 0.7.
